“Also recorded” adds a separate entry of the source.
Assays:
SCC cells = experiment: Real-time PCR Diabetes Array; type: cell-based; settings: 100 μM
From the text: The control cells were untreated cells.

[1] = test system: Lactate Dehydrogenase (LDH); experiment: Western blot of Lactate Dehydrogenase levels in cells treated with Coenzyme Q10; type: cell-based, human; settings: HepG2, 5 g, 24 h, 50 μM
Experimental: The samples were processed and run on a 4-12% Bis-Tris Novex NuPAGE gel as described above. The gels were run, transferred and stained essentially as described above.
After transfer each blot was dried for 15-20 minutes, activated with methanol for 5 seconds, washed with water for 5 minutes, and TBST for 15 minutes. The blots were blocked for 1 hour with 5% blocking reagent in TBS-T at room temperature and then washed 3 times with TBS-T (1×-15′; 2×5′ each) and probed with the primary antibody for Lactate Dehydrogenase (abcam ab2101; polyclonal) in 5% BSA (at 1:1000 dilutions) by incubation overnight at 4 deg C. with shaking. After the overnight incubation with primary antibody for Lactate Dehydrogenase, the blots were washed 3 times with TBS-T (1×-15′; 2×5′ each) and probed with the secondary antibody (rabbit antigoat; 1:10,000 dilution) for 1 h at room temperature. After 1 h of incubation with secondary antibodies, the blots were washed 3 times with TBS-T (1×-15′; 2×5′ each) and then incubated with ECF reagent for 5 mins and then each blot scanned with 5100 Fuji Laser scanner at 25 uM resolution, 16 bit, green laser, at 400V and at 500 V. […]
The levels of LDH and PDH were determined by probing the blots successively with primary antibodies for LDH and PDH, essentially as described above. […]

Experimental for SK-MEL-28 mitochondria: The cells were harvested by washing and scraping the cells from T-160 flasks (4 for each time point). The cells were collected by centrifugation and the pellets flash frozen and stored at −80° C. The cell pellets were resuspended and ruptured using a 2 mL Dounce homogenizer. The reagents and method were obtained from a Mitochondria Isolation Kit for Cultured Cells (MitoSciences, Cat #MS852). The resultant mitochondria samples were divided into 75 μL aliquots (4-5 aliquots per sample) and stored at −80° C.
The samples were subjected to 2-D electrophoresis (in duplicate). Analysis of 525 protein spots in the comparative study was performed, comparing the control samples against the other time point samples (FIG. 11).

SMILES: COC1=C(OC)C(=O)C(C/C=C(\C)CC/C=C(\C)CC/C=C(\C)CC/C=C(\C)CC/C=C(\C)CC/C=C(\C)CC/C=C(\C)CC/C=C(\C)CC/C=C(\C)CCC=C(C)C)=C(C)C1=O [Q10, Coenzyme Q10]
- TNFRSF1A gene Regulation (SCC cells; at 6 and 24 hours): Down regulated at 6 and 24
- G6PD gene Regulation (SCC cells; at 6 hours): Down regulated at 6 hours.
- ICAM1 gene Regulation (SCC cells; at 6 hours): Down regulated at 6 hours.
- INPPL1 gene Regulation (SCC cells; at 6 hours): Down regulated at 6 hours.
- NOS3 gene Regulation (SCC cells; at 6 hours): Down regulated at 6 hours.
- PIK3CD gene Regulation (SCC cells; at 6 hours): Down regulated at 6 hours.
- PPARA gene Regulation (SCC cells; at 6 hours): Down regulated at 6 hours.
- PYGL gene Regulation (SCC cells; at 6 hours): Down regulated at 6 hours.
- SREBF1 gene Regulation (SCC cells; at 6 hours): Down regulated at 6 hours.
- STXBP2 gene Regulation (SCC cells; at 6 hours): Down regulated at 6 hours.
- TNF gene Regulation (SCC cells; at 6 hours): Down regulated at 6 hours.
- VEGFA gene Regulation (SCC cells; at 6 hours): Down regulated at 6 hours.
- Lactate Dehydrogenase Normalized Volume [1]: 7900
- Response at later time points (19, 48 hr) (SK-MEL-28 mitochondria; 100 μM Q10): drops more for 19; also recorded: back to normal at 48; also recorded: Up at 19 and 48 hr; also recorded: Up only at 19 hr; also recorded: drop to low levels
- Response (direction) at 6 hr (SK-MEL-28 mitochondria; 100 μM Q10, 6 hr): Down and Up
